Test results from ChEMBL document CHEMBL5034010, “Novel Cephalosporin Conjugates Display Potent and Selective Inhibition of Imipenemase-Type Metallo-β-Lactamases” (J Med Chem, 2021).
≈ marks a conversion by molar mass, not a printed value. Calls of active or inactive are those of the source. The rule behind the calls is not given here.

Assays:
Klebsiella pneumoniae [1] = assay: Inhibition of Klebsiella pneumoniae beta Metallo-beta-lactamase IMP-28
Enterobacter cloacae [2] = assay: Inhibition of Enterobacter cloacae Metallo-beta-lactamase IMP-1
[3] = Binding affinity to Zinc incubated for 2 hrs measured by isothermal titration calorimetric assay
Escherichia coli [4] = assay: Inhibition of Metallo-beta-lactamase VIM-2 in Escherichia coli clinical isolate assessed as fold reduction in meropenem MIC at 128 ug/ml; conditions: dose 128.0 µg/ml
[5] = Inhibition of Escherichia coli beta-lactamase NDM-1 using nitrocefin chromogenic substrate measured after 15 to 60 min at 25 degC by microplate reader
Enterobacter cloacae [6] = assay: Inhibition of Metallo-beta-lactamase IMP-1 in Enterobacter cloacae clinical isolate assessed as fold reduction in meropenem MIC at 128 ug/ml; conditions: dose 128.0 µg/ml
Enterobacter cloacae [7] = assay: Inhibition of Metallo-beta-lactamase IMP-1 in Enterobacter cloacae clinical isolate assessed as fold reduction in meropenem MIC at 64 ug/ml; conditions: dose 64.0 µg/ml
Klebsiella pneumoniae [8] = assay: Substrate activity at Klebsiella pneumoniae beta-lactamase IMP-28 assessed as compound hydrolysis by measuring Km by Michaelis-Menten analysis
Enterobacter cloacae [9] = assay: Inhibition of Metallo-beta-lactamase IMP-1 in Enterobacter cloacae clinical isolate assessed as MIC for meropenem antibacterial activity at 64 ug/ml (Rvb =16 ug/ml); conditions: dose 64.0 µg/ml
Escherichia coli [10] = assay: Inhibition of Metallo-beta-lactamase VIM-2 in Escherichia coli clinical isolate assessed as fold reduction in meropenem MIC at 64 ug/ml; conditions: dose 64.0 µg/ml
Escherichia coli [11] = assay: Inhibition of Metallo-beta-lactamase VIM-2 in Escherichia coli clinical isolate assessed as MIC for meropenem antibacterial activity at 32 ug/ml (reference value: 8 ug/ml); conditions: dose 32.0 µg/ml
Enterobacter cloacae [12] = assay: Inhibition of Metallo-beta-lactamase IMP-1 in Enterobacter cloacae clinical isolate assessed as MIC for meropenem antibacterial activity at 32 ug/ml (Rvb =16 ug/ml); conditions: dose 32.0 µg/ml
Enterobacter cloacae [13] = assay: Inhibition of Metallo-beta-lactamase IMP-1 in Enterobacter cloacae clinical isolate assessed as fold reduction in meropenem MIC at 32 ug/ml; conditions: dose 32.0 µg/ml
Enterobacter cloacae [14] = assay: Inhibition of Metallo-beta-lactamase IMP-1 in Enterobacter cloacae clinical isolate assessed as MIC for meropenem antibacterial activity at 128 ug/ml (Rvb =16 ug/ml); conditions: dose 128.0 µg/ml
Klebsiella pneumoniae [15] = assay: Substrate activity at Klebsiella pneumoniae beta-lactamase IMP-28 assessed as compound hydrolysis by measuring Kcat by Michaelis-Menten analysis
Klebsiella pneumoniae [16] = assay: Inhibition of Metallo-beta-lactamase IMP-28 in Klebsiella pneumoniae clinical isolate assessed as MIC for meropenem antibacterial activity at 64 ug/ml (reference value: 4 ug/ml); conditions: dose 64.0 µg/ml
Klebsiella pneumoniae [17] = assay: Antibacterial activity against beta-lactamase IMP-28 producing Klebsiella pneumoniae clinical isolate measured upto 128 ug/ml; format: functional, organism-based
Escherichia coli [18] = assay: Inhibition of Metallo-beta-lactamase NDM-1 in Escherichia coli clinical isolate assessed as fold reduction in meropenem MIC at 128 ug/ml; conditions: dose 128.0 µg/ml
Escherichia coli [19] = assay: Inhibition of Metallo-beta-lactamase NDM-1 in Escherichia coli clinical isolate assessed as MIC for meropenem antibacterial activity at 32 ug/ml (reference value: 64 ug/ml); conditions: dose 32.0 µg/ml
Escherichia coli [20] = assay: Inhibition of Metallo-beta-lactamase NDM-1 in Escherichia coli clinical isolate assessed as fold reduction in meropenem MIC at 64 ug/ml; conditions: dose 64.0 µg/ml
Klebsiella pneumoniae [21] = assay: Inhibition of Metallo-beta-lactamase IMP-28 in Klebsiella pneumoniae clinical isolate assessed as MIC for meropenem antibacterial activity at 128 ug/ml (reference value: 4 ug/ml); conditions: dose 128.0 µg/ml
Escherichia coli [22] = assay: Inhibition of Metallo-beta-lactamase NDM-1 in Escherichia coli clinical isolate assessed as MIC for meropenem antibacterial activity at 64 ug/ml (reference value: 64 ug/ml); conditions: dose 64.0 µg/ml
Escherichia coli [23] = assay: Inhibition of Metallo-beta-lactamase VIM-2 in Escherichia coli clinical isolate assessed as fold reduction in meropenem MIC at 32 ug/ml; conditions: dose 32.0 µg/ml
Klebsiella pneumoniae [24] = assay: Inhibition of Metallo-beta-lactamase IMP-28 in Klebsiella pneumoniae clinical isolate assessed as fold reduction in meropenem MIC at 64 ug/ml; conditions: dose 64.0 µg/ml
Escherichia coli [25] = assay: Antibacterial activity against beta-lactamase NDM1 producing Escherichia coli clinical isolate measured upto 128 ug/ml; format: functional, organism-based
Enterobacter cloacae [26] = assay: Antibacterial activity against beta-lactamase IMP1 producing Enterobacter cloacae clinical isolate measured upto 128 ug/ml; format: functional, organism-based
Escherichia coli [27] = assay: Inhibition of Metallo-beta-lactamase VIM-2 in Escherichia coli clinical isolate assessed as MIC for meropenem antibacterial activity at 128 ug/ml (reference value: 8 ug/ml); conditions: dose 128.0 µg/ml
Escherichia coli [28] = assay: Inhibition of Metallo-beta-lactamase VIM-2 in Escherichia coli clinical isolate assessed as MIC for meropenem antibacterial activity at 64 ug/ml (reference value: 8 ug/ml); conditions: dose 64.0 µg/ml
Escherichia coli [29] = assay: Antibacterial activity against beta-lactamase VIM2 producing Escherichia coli clinical isolate measured upto 128 ug/ml; format: functional, organism-based
Escherichia coli [30] = assay: Inhibition of Metallo-beta-lactamase NDM-1 in Escherichia coli clinical isolate assessed as fold reduction in meropenem MIC at 32 ug/ml; conditions: dose 32.0 µg/ml
Klebsiella pneumoniae [31] = assay: Inhibition of Metallo-beta-lactamase IMP-28 in Klebsiella pneumoniae clinical isolate assessed as MIC for meropenem antibacterial activity at 32 ug/ml (reference value: 4 ug/ml); conditions: dose 32.0 µg/ml
Klebsiella pneumoniae [32] = assay: Inhibition of Metallo-beta-lactamase IMP-28 in Klebsiella pneumoniae clinical isolate assessed as fold reduction in meropenem MIC at 32 ug/ml; conditions: dose 32.0 µg/ml
[33] = Stability of the compound in Muller hinton broth assessed compound remaining measured after 15 hrs by HPLC analysis; format: physicochemical; conditions: Mueller Hinton broth, read-out: Stability
[34] = Inhibition of Enterobacter cloacae IMP-1 using nitrocefin chromogenic substrate measured after 15 to 60 min at 25 degC by microplate reader
Klebsiella pneumoniae [35] = assay: Substrate activity at Klebsiella pneumoniae beta-lactamase IMP-28 assessed as compound hydrolysis by measuring Kcat/Km by Michaelis-Menten analysis
[36] = Inhibition of Escherichia coli beta-lactamase VIM-2 using nitrocefin chromogenic substrate measured after 15 to 60 min at 25 degC by microplate reader
[37] = Inhibition of Klebsiella pneumoniae beta-lactamase IMP-28 using nitrocefin chromogenic substrate measured after 15 to 60 min at 25 degC by microplate reader
Escherichia coli [38] = assay: Inhibition of Metallo-beta-lactamase NDM-1 in Escherichia coli clinical isolate assessed as MIC for meropenem antibacterial activity at 128 ug/ml (reference value: 64 ug/ml); conditions: dose 128.0 µg/ml
Klebsiella pneumoniae [39] = assay: Inhibition of Metallo-beta-lactamase IMP-28 in Klebsiella pneumoniae clinical isolate assessed as fold reduction in meropenem MIC at 128 ug/ml; conditions: dose 128.0 µg/ml

Compound	inhibition (Klebsiella pneumoniae [1])	inhibition (Enterobacter cloacae [2])	Kd [3] [µM]	fold change (FC) (Escherichia coli [4])	fold change (FC) (Enterobacter cloacae [6])	fold change (FC) (Enterobacter cloacae [7])	Km (Klebsiella pneumoniae [8]) [µM]	MIC (Enterobacter cloacae [9]) [mg/L]	fold change (FC) (Escherichia coli [10])	MIC (Escherichia coli [11]) [mg/L]	MIC (Enterobacter cloacae [12]) [mg/L]	fold change (FC) (Enterobacter cloacae [13])	MIC (Enterobacter cloacae [14]) [mg/L]	kcat (Klebsiella pneumoniae [15]) [s⁻¹]	MIC (Klebsiella pneumoniae [16]) [mg/L]	Activity (Klebsiella pneumoniae [17])	fold change (FC) (Escherichia coli [18])	MIC (Escherichia coli [19]) [mg/L]	fold change (FC) (Escherichia coli [20])	MIC (Klebsiella pneumoniae [21]) [mg/L]	also measured
O=C(Cc1ccccc1)N[C@H](C(=O)O)[C@@H]1N=C(C(=O)O)C(CSC(Cc2ccccc2)C(=O)O)CS1 (stereo partly specified)	Active	Active	3.19	–	–	–	–	–	–	–	–	–	–	–	–	–	–	–	–	–	–
O=C(Cc1ccccc1)N[C@@H]1C(=O)N2C(C(=O)O)=C(CS[C@@H](Cc3ccccc3)C(=O)O)CS[C@H]12	–	–	–	2	4	2	175	8 (≈ 15.6 µM)	1	8 (≈ 15.6 µM)	8 (≈ 15.6 µM)	2	4 (≈ 7.8 µM)	41	0.5 (≈ 0.975 µM)	inactive	4	32 (≈ 62.4 µM)	2	0.25 (≈ 0.488 µM)	IC50 [5]: 51 µM; MIC (Escherichia coli [22]): 32 mg/L (≈ 62.4 µM); fold change (FC) (Escherichia coli [23]): 1; fold change (FC) (Klebsiella pneumoniae [24]): 8; Activity (Escherichia coli [25]): inactive; Activity (Enterobacter cloacae [26]): inactive; MIC (Escherichia coli [27]): 4 mg/L (≈ 7.8 µM); MIC (Escherichia coli [28]): 8 mg/L (≈ 15.6 µM); Activity (Escherichia coli [29]): inactive; fold change (FC) (Escherichia coli [30]): 2; MIC (Klebsiella pneumoniae [31]): 1 mg/L (≈ 1.95 µM); fold change (FC) (Klebsiella pneumoniae [32]): 4; remaining at 15 h [33]: > 95%; IC50 [34]: 48 µM; kcat/Km (Klebsiella pneumoniae [35]): 234000 M⁻¹ s⁻¹; IC50 [36]: 19 µM; IC50 [37]: 30 µM; MIC (Escherichia coli [38]): 16 mg/L (≈ 31.2 µM); fold change (FC) (Klebsiella pneumoniae [39]): 16
O=C(Cc1ccccc1)N[C@H](C(=O)O)[C@@H]1N=C(C(=O)O)C(CSC(C(=O)O)c2ccccc2)CS1 (stereo partly specified)	Active	Active	9.67	–	–	–	–	–	–	–	–	–	–	–	–	–	–	–	–	–	–
O=C(Cc1ccccc1)N[C@@H]1C(=O)N2C(C(=O)O)=C(CSCCc3ccccc3)CS[C@H]12	–	–	–	2	2	2	83.3	8 (≈ 17.1 µM)	2	8 (≈ 17.1 µM)	8 (≈ 17.1 µM)	2	8 (≈ 17.1 µM)	6.12	0.25 (≈ 0.534 µM)	inactive	4	32 (≈ 68.3 µM)	4	0.25 (≈ 0.534 µM)	MIC (Escherichia coli [22]): 16 mg/L (≈ 34.1 µM); fold change (FC) (Escherichia coli [23]): 1; fold change (FC) (Klebsiella pneumoniae [24]): 16; Activity (Escherichia coli [25]): inactive; Activity (Enterobacter cloacae [26]): inactive; MIC (Escherichia coli [27]): 4 mg/L (≈ 8.54 µM); MIC (Escherichia coli [28]): 4 mg/L (≈ 8.54 µM); Activity (Escherichia coli [29]): inactive; fold change (FC) (Escherichia coli [30]): 2; MIC (Klebsiella pneumoniae [31]): 0.5 mg/L (≈ 1.07 µM); fold change (FC) (Klebsiella pneumoniae [32]): 8; IC50 [34]: 2.2 µM; kcat/Km (Klebsiella pneumoniae [35]): 73000 M⁻¹ s⁻¹; IC50 [36]: 49 µM; IC50 [37]: 4.3 µM; MIC (Escherichia coli [38]): 16 mg/L (≈ 34.1 µM); fold change (FC) (Klebsiella pneumoniae [39]): 16
